The NIST ThermoML archive (doi:10.1021/je401008s)

Test: xn = mol fraction of the nth substance listed
Conditions: Liquid, Taylor dispersion method, x1 = 0

O=C=O [carbon dioxide] + O
Conditions	binary diffusion coefficient [m2/s]
298 K, 14000 kPa	2.23e-09
298 K, 31600 kPa	2.26e-09
298 K, 47700 kPa	2.22e-09
323 K, 14200 kPa	3.64e-09
323 K, 31800 kPa	3.72e-09
323 K, 48600 kPa	3.94e-09
348 K, 14900 kPa	5.39e-09
348 K, 31800 kPa	5.31e-09
348 K, 49300 kPa	5.37e-09
373 K, 14900 kPa	7.42e-09
373 K, 31000 kPa	7.52e-09
373 K, 48500 kPa	7.68e-09
398 K, 14300 kPa	9.95e-09
398 K, 30900 kPa	1.01e-08
398 K, 48000 kPa	1.02e-08
423 K, 14300 kPa	1.23e-08
423 K, 48000 kPa	1.22e-08

N#N [nitrogen] + O
Conditions	binary diffusion coefficient [m2/s]
298 K, 12000 kPa	1.99e-09
298 K, 25000 kPa	2e-09
298 K, 44600 kPa	1.98e-09
323 K, 14600 kPa	3.28e-09
323 K, 25100 kPa	3.47e-09
323 K, 45000 kPa	3.2e-09
373 K, 14800 kPa	6.62e-09
373 K, 45000 kPa	6.42e-09
423 K, 26900 kPa	1.07e-08
423 K, 45900 kPa	1.04e-08
